Reference: patent US20230103300A1, “TOPICAL PHARMACEUTICAL COMPOSITION IN GEL FORM COMPRISING AT LEAST AMI[…] USE IN THE TREATMENT OF CORONAVIRUS-INDUCED NEUROPATHIC PAIN” (AlgoTherapeutix, priority 2021, published 2023)

Assay: Comparative ex vivo study of the percutaneous absorption of amitriptyline (Frantz cell)
Type: in vitro ADME
Conditions: ex vivo human skin, topical application
Procedure: Comparative ex vivo study of the percutaneous absorption of amitriptyline in a formulation A in aqueous gel form (invention) and in a formulation B in cream form (comparative).
Each of compositions A and B was applied on separate human skin samples. For each composition, the experiment was repeated 3 times with 3 skin samples from 3 different donors, i.e., 9 samples.
The skin samples are mounted in a Frantz cell and are heated to a surface temperature of 32° C.±1° C.
Composition A or B is spread evenly using a spatula on each skin sample at a rate of 10 mg per cell, corresponding to 5 mg/cm^2 of skin.
The skin samples are rinsed 16 hours after application.
Each skin sample was placed with a tweezers on a paper towel (dermis facing downward).
The stratum corneum is removed using adhesive strips.
After removing the stratum corneum, the sample is perforated. The epidermis is then separated from the dermis. Each of them is placed in separate bottles.
The different samples were then extracted.

CN(C)CCC=C1c2ccccc2CCc2ccccc21 [amitriptyline, Amitriptyline]
systemic passage of amitriptyline: less than 0.1 % of the administered dose
